Laboratory results published in PMC7466040, “Sevanol and Its Analogues: Chemical Synthesis, Biological Effects and Molecular Docking” (Pharmaceuticals, 2020).

Target: T1, ASIC1a (Rattus norvegicus, UniProt P55926)
T1 construct: expressed in transfected cells; host or cells: Xenopus laevis oocytes (cRNA injection)
T1 sequence (P55926 1-526): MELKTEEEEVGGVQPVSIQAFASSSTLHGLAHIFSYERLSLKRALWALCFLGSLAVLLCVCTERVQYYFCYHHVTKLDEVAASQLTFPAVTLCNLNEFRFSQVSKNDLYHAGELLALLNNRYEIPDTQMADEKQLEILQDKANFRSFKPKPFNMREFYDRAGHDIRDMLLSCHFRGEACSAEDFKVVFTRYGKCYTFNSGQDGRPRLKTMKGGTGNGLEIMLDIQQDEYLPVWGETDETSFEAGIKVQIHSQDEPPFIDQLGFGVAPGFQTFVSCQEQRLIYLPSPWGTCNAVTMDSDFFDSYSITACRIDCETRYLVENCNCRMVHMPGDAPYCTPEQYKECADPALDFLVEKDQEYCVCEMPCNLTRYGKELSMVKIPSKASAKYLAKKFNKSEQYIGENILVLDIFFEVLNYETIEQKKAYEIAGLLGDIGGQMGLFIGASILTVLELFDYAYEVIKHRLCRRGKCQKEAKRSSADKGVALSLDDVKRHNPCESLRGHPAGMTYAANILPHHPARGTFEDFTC
Assay: Competition of sevanol with FRRFa peptide on ASIC1a current (integral currents)
Type: cell-based
Text: It is known that RF-amide peptides produce a potentiating effect on ASIC1a by inhibiting the channel’s desensitization in the presence of protons (during acidic stimulation). […] Using molecular docking and site-directed mutagenesis, it has been shown that RF-amide peptides are most likely to bind to ASIC1a in the central vestibule of the chicken channel. […] The peptide worsened the effectiveness of the inhibitory action of sevanol on the channel by 1.5 times, and reduced the Hill coefficient (Figure 3). Thus, it can be assumed that the binding site of sevanol also lies in the region of the central vestibule.
Oocytes were harvested from female frogs anaesthetized with tricaine methane sulfonate (MS222) (0.17% solution), and the surgery was performed in an ice bath to avoid heavy bleeding. Defolliculated stage IV and V cells were injected with 2.5 and 10 ng cRNA, synthesized from PCi plasmids containing the rat ASIC1a and rat ASIC3 isoforms, respectively, using the Nanoliter 2000 microinjection system (World Precision Instruments, USA). The injected oocytes were kept for 2–3 days at 17 to 19 °C, and then for up to 5 days at 15 °C in a ND96 medium containing (in mM) 96 NaCl, 2 KCl, 1.8 CaCl2, 1 MgCl2, and 5 HEPES titrated to pH 7.4 with NaOH supplemented with gentamycin (50 μg/mL). Two-electrode voltage clamp recordings were performed at a holding potential of −50 mV using a GeneClamp 500 amplifier (Axon Instruments), and the data were filtered at 20 Hz and digitized at 100 Hz by an AD converter L780 (LCard, Russia). Microelectrodes were filled with 3 M KCl. The conditioning bath solution was ND96; the pH was adjusted to 7.4. The activating test solution was constructed based on the ND-96 buffer, in which 5 mM HEPES was replaced with 10 mM MES and pH was adjusted to 5.5. A computer-controlled valve system was used to achieve a rapid solution exchange in the recording chamber. A four parameter logistic equation was used for the curve-fitting analysis: F(x) = ((a1 − a2)/(1 + (x/x0)n)) + a2, where x is the concentration of the compound; F(x) is the response value at a given concentration of the compound; a1 is the control response value (fixed at 100%); x0 is the IC50 value; n is the Hill coefficient (slope factor); and a2 is the response value at the maximal inhibition (% of control).
Figure 3 Comparison of sevanol (s706) and the Phe-Arg-Arg-Phe-amide peptide (FRRFa) effects on the ASIC1a current. […] (B) Dose–response ASIC1a inhibitory curves for s706 alone (red line) and for s706 in the presence of 200 µM FRRFa (blue line), determined for integral currents. […]

- worsening of effectiveness of inhibitory action on ASIC1a by FRRFa peptide (200 μM FRRFa vs alone): 1.5 times
- IC50 (integral currents, pH 5.5, 15 s pre-incubation, n = 5, read-out: IC50, ASIC1a inhibition, s706 alone): 254 ± 31.2 µM
- nH, ASIC1a inhibition in the presence of FRRFa (integral currents, pH 5.5, + 0.2 mM (200 µM) FRRFa, n = 5): 2.4 ± 0.3
- nH, ASIC1a inhibition, s706 alone (integral currents, pH 5.5, n = 5): 3.1 ± 0.4
Structure (SMILES): O=C(O)CC(C(=O)O)C(OC(=O)C1=Cc2cc(O)c(O)cc2C(c2ccc(O)c(O)c2)C1C(=O)OC(C(=O)O)C(CC(=O)O)C(=O)O)C(=O)O (stereo not shown) [sevanol]
